# Patent US10106523B2, “Amide compound” (ASTELLAS PHARMA INC., priority 2014, dated 2018)
# Test system: SD rats
# Test: Evaluation on rat gastrointestinal disorder (7-day oral administration, hematology, blood chemistry, histopathology)
# Type: in vivo
# Conditions: 3 mg/kg po for 7 days
# Procedure: Test Example 10: Evaluation on Rat Gastrointestinal Disorder
# SD rats (male, 7-week old) were used. A test compound dissolved in a mixed solution of PEG 400: 20% Tween 80: 1 mol/L aqueous NaHCO3 solution=1:4:5 was orally administered at a dose of 3 mg/kg (n=5, 5 mL/kg) for 7 days. The aforementioned mixed liquid was orally administered to a group not treated with the test drug (n=5) at a volume of 5 mL/kg for 7 days. Blood was collected under fasting overnight for hematology and blood chemistry tests on the following day after the final administration. After blood collection, the animal which had been euthanized by exsanguination was immediately necropsied, and the stomach, duodenum, jejunum, ileum, cecum, colon, rectum, and liver were excised therefrom. The excised organs were fixed in a 10% neutral buffered formalin solution and used for histopathological evaluation.
structure (smiles),measurement,value
"Cc1nn(Cc2cc3ccccc3cn2)c(C(=O)N[C@@H](C)c2ccc(C(=O)O)cc2)c1Br [Compound A, 4-[(1S)-1-({[4-bromo-1-(isoquinolin-3-ylmethyl)-3-methyl-1H-pyrazol-5-yl]carbonyl}amino)ethyl]benzoic acid]","Findings indicating abnormality (hematology, blood chemistry, histopathology of gastrointestinal organs and liver)",not observed
